Test results taken from patent US8486994B2, “Prodrugs of substituted 1,3-dioxanes and their uses” (Evolva SA, priority 2007, dated 2013).
Like-named read-outs stand apart in the source and are kept apart here. One block for each compound: values may come before it.

Tests used:
[1] = Pharmacokinetics (plasma exposure) after i.v. or p.o. dosing, non-compartmental analysis; format: in vivo, male Wistar rats; details: rat; for half-life: read-out: Terminal Half-life elimination, t½z
Experimental: Animals were fasted overnight before dosing p.o. (gavage or capsule) or by bolus intravenous application. Blood samples (approx. 0.15 ml) were taken at different time points into heparinized tubes by automated blood sampling. Plasma was prepared and stored frozen until bioanalysis.
• to an aliquot of 10 μL plasma 30 μL ACN/EtOH (50/50, v/v) are added • vortex • 20 min 14000 rpm approx. 8° C. • Supernatant transfer in HPLC vial Liquid Chromatography
The samples were analyzed by mass spectroscopy using ESI (negative ion mode) as the ionization mode. Selected Reaction Monitoring:
The quantitatively measured plasma concentration-time data were subjected to non-compartmental analysis (NCA) using the PCModfit program (version 3.00) for Windows® running with Excel 2003 (http://home2.btconnect.com/Gamms/PCModfit/; Allen, G. D. ‘Modfit: a pharmacokinetics computer program’ Biopharm. and Drug Disp., Vol. 11, 477-498, 1990). The points selected in each profile for half-life estimation using numerical analysis, where possible, corresponded to the final linear phase as visually assessed from ln(concentration) vs. time plots. The terminal elimination rate constant (λz) for each profile was numerically estimated using iteratively re-weighted non-linear least squares analysis with a weighting factor of 1/Ĉ^2. The area under the concentration-time curve to the last actual time point (AUC0-t) and infinity (AUC0-∞) for each data set were estimated using a linear (ascending) trapezoidal method. The extrapolated area to infinity (AUC0-∞) was estimated, where possible, using AUC0-t and the predicted value (Ĉn) at the last time point for each profile.
[formula] [formula] The Ci values correspond to the actual concentrations of drug at time ti for n data points. The C0 value was extrapolated using the first 4 time points.

[2] = system: arterial thrombosis in a mouse model; test: FeCl3 arterial thrombosis model (femoral artery, laser Doppler blood flow); format: in vivo, mice
Experimental: • Vehicle (DMSO/PEG 400, 5/95) • Dose of 1, 3, 10, 30, 100 and 300 mg/kg of Prodrug 3 in vehicle • Saline • Aspirin (dose of 100 mg and 600 mg/kg in vehicle) • Aspirin (Aspégic from Sanofi Synthelabo; dissolved in Saline) • Clopidogrel (Plavix from Sanofi Pharma; dissolved in H2O)
The solutions are diluted 3.3-fold in saline and 100 μl/25 g is injected. Thus, the above-mentioned doses of 100 and 300 mg/kg of compound correspond to final doses of 30 and 100 mg/kg.
Solutions are injected (100 μl/25 g body weight) i.v. in the tail vein over 2 min to obtain doses of each compound of 30 mg/kg and 100 mg/kg. Aspirin is given the same way at a dose of 200 mg/kg. Clopidogrel is administered by oral gavage at a dose of 20 mg/kg at 6-7 hours prior to the experiment. The animals assigned to each group are matched for body weight. Mice are typically 8-10 weeks old males and are in a 100% Swiss genetic background.
The flow in each image is expressed as a percentage of that at the contralateral side, and data are averaged for all 120 images to determine total flow. The same analysis is performed for 10 min intervals (which gives essentially the same information as the area under the curve). […] Flow before treatment is recorded as 100%, and that in occluded arteries as 0%. At the end of the experiment, blood is collected on 0.01M citrate buffer by heart puncture for determination of blood cell counts. Plasma is prepared by centrifugation and stored at −20° C. for determination of drug levels.
Statistical analysis for differences between two groups is performed by non-parametric Student t-test. Occlusion times >30 min were considered equal to 30 min for statistical analysis. Significance is set at p<0.05.

[3] = target: T1, Thromboxane receptor (TP) (Homo sapiens, UniProt P21731); test: TP Receptor Radioligand Binding ([3H] SQ-29548); details: Human recombinant HEK-293 cells
T1 construct: expressed in transfected cells; host or cells: HEK-293
T1 sequence (P21731 1-343): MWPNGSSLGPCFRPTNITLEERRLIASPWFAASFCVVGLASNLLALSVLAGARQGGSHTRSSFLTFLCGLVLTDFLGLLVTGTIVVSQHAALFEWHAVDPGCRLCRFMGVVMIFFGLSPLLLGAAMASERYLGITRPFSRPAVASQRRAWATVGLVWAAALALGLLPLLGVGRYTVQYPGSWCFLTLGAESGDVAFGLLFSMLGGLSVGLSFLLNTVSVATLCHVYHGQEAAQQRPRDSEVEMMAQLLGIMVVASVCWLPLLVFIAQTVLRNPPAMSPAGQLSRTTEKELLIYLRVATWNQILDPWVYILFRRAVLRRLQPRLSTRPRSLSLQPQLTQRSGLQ
Experimental: Using these experimental conditions Human recombinant HEK-293 cells, Ligand: 5 nM [^3H] […] J Pharmacol Exp Ther. 245(3):786-92792, and Saussy D L Jr, Mais D E, Burch R M and Halushka P V (1986) Identification of a putative thromboxane A2/prostaglandin H2 receptor in human platelet membranes. J Biol Chem. 261(7):3025-9.
(§1) The data were transformed to semi-log and then analysed using non-linear regression to a four-parameter dose-response curve Y=Bottom+(Top−Bottom)/(1+10^((Log EC50−X)*HillSlope)) using the log(agonist) vs. response—Variable slope function of GraphPad Prism software (http://graphpad.com/help/prism5/prism5help.html?usingnonlinear_regression_step_by_s.ht m).

[4] = target: T2, Thromboxane synthase (Homo sapiens, UniProt P24557); test: Human Platelet Thromboxane Synthase Assay; format: biochemical
T2 sequence (P24557 1-533): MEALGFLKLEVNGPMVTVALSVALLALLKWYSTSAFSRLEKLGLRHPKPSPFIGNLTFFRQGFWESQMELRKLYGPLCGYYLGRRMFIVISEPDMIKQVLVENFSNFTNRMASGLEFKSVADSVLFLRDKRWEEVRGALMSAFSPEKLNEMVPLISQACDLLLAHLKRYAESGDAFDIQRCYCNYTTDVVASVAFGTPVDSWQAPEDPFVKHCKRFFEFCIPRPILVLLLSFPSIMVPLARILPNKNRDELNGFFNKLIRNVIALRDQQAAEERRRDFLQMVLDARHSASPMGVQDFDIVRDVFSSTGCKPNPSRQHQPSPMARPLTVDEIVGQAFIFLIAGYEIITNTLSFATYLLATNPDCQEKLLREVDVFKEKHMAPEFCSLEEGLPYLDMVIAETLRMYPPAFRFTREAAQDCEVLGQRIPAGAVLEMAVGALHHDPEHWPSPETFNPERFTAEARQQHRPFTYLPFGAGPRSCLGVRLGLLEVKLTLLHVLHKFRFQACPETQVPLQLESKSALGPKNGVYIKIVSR
Experimental: Using these experimental conditions Substrate: 10 μM PGH2, Vehicle: 1% DMSO
Pre-incubation time, temp: 15 min at 25° C., Incubation time, temp: 3 min at 25° C.
1. Imidazole derivatives. J Med Chem. 24(10):1139-48.
as §1

[5] = i.v., 3.53 mg/kg, DMSO/PEG400 (5%/95%)
[6] = p.o., 10 mg/kg, solid in capsules
[7] = i.v., 3.56 mg/kg, DMSO/PEG400/PBS 1X (5%/30%/65%)

Cmax (ng/ml)/Dose (mg/kg) [1, 6]: 115 ± 123 (ng/ml)/Dose (mg/kg)
Lin-AUC (0-∞) (ng•min/ml)/Dose (mg/kg) [1, 6]: 17352 ± 14479 (ng•min/ml)/Dose (mg/kg)
T-Last [1, 6]: 8 to 12 h
Terminal Half-life elimination, t½z [1, 6]: 2.22 ± 0.75 h
Tmax [1, 6]: 3 ± 2.12 h
SMILES: O=C(O)CC/C=C\C[C@@H]1CO[C@H](c2ccccc2Cl)O[C@@H]1c1ccccc1O [drawing 24]

half-life ([1]; male, Wistar, plasma, po, 10 mg/kg, p.o., 10 mg/kg, solid in capsules): 1.58 ± 0.567 h
Tmax ([1]; male, Wistar, plasma, po, 10 mg/kg, p.o., 10 mg/kg, solid in capsules, read-out: Tmax (converted)): 1.5 h
Cmax (ng/ml)/Dose (mg/kg) [1, 6]: 236 ± 63 (ng/ml)/Dose (mg/kg)
Lin-AUC (0-∞) (ng•min/ml)/Dose (mg/kg) [1, 6]: 27195 ± 4453 (ng•min/ml)/Dose (mg/kg)
T-Last [1, 6]: 6 to 12 h
SMILES: O=C(O)CC/C=C\C[C@@H]1CO[C@H](c2ccccc2Cl)O[C@@H]1c1ccccc1O [drawing 20]

half-life ([1]; male, Wistar, plasma, iv, 3.56 mg/kg, i.v., 3.56 mg/kg, DMSO/PEG400/PBS 1X (5%/30%/65%)): 0.767 ± 0.433 h
Tmax ([1]; male, Wistar, plasma, iv, 3.56 mg/kg, i.v., 3.56 mg/kg, DMSO/PEG400/PBS 1X (5%/30%/65%), read-out: Tmax (converted)): 0.0833 h
Cmax (ng/ml)/Dose (mg/kg) [1, 7]: 614 ± 68 (ng/ml)/Dose (mg/kg)
Lin-AUC (0-∞) (ng•min/ml)/Dose (mg/kg) [1, 7]: 12050 ± 1835 (ng•min/ml)/Dose (mg/kg)
T-Last [1, 7]: 3 to 6 h
SMILES: O=C(O)CC/C=C\C[C@@H]1CO[C@H](c2ccccc2Cl)O[C@@H]1c1ccccc1O [drawing 18]

IC50 [3]: 1870 nM
Ki [3]: 1220 nM
IC50 [4]: 17500 nM
SMILES: COc1ccccc1[C@@H]1O[C@H](c2ccccc2Cl)OC[C@@H]1C/C=C\CCC(=O)O [Compound 4, (Z)-6-((2R,4R,5S)-2-(2-chlorophenyl)-4-(2-methoxyphenyl)-1,3-dioxan-5-yl)hex-4-enoic acid]

The next lines start with the compound.

SMILES: COc1ccccc1[C@H]1OC(c2ccccc2Cl)OC[C@H]1C/C=C\CCC(=O)O (stereo partly shown) [drawing 19]
half-life ([1]; male, Wistar, plasma, iv, 3.53 mg/kg, i.v., 3.53 mg/kg, DMSO/PEG400 (5%/95%)): 3.03 ± 0.917 h
Tmax ([1]; male, Wistar, plasma, iv, 3.53 mg/kg, i.v., 3.53 mg/kg, DMSO/PEG400 (5%/95%), read-out: Tmax (converted)): 0.0833 h
Cmax (ng/ml)/Dose (mg/kg) [1, 5]: 554 ± 154 (ng/ml)/Dose (mg/kg)
Lin-AUC (0-∞) (ng•min/ml)/Dose (mg/kg) [1, 5]: 17416 ± 1734 (ng•min/ml)/Dose (mg/kg)
T-Last [1, 5]: 8 to 12 h

SMILES: COc1ccccc1[C@H]1OC(c2ccccc2Cl)OC[C@H]1C/C=C\CCC(=O)O (stereo partly shown) [Prodrug 3]
total blood flow ([2]; 10 mg/kg in vehicle, i.v.): no effect on total blood flow
occlusion time ([2]; 30 mg/kg in vehicle (DMSO/PEG 400), i.v.): prolongs the occlusion time as compared to aspirin (p=0.024) and the parent compound, but has no effect as compared to vehicle
total blood flow ([2]; 30 mg/kg in vehicle, i.v.): slightly improved total blood flow as compared to aspirin (p=0.055), but not as compared to vehicle

SMILES: COc1ccccc1[C@H]1O[C@@H](c2ccccc2Cl)OC[C@H]1C/C=C\CCC(=O)O [Compound 5, (Z)-6-((2S,4S,5R)-2-(2-chlorophenyl)-4-(2-methoxyphenyl)-1,3-dioxan-5-yl)hex-4-enoic acid]
IC50 [3]: 23.4 nM
Ki [3]: 15.3 nM
IC50 [4]: 20400 nM
inhibition at 30 µM ([4]; at 30 μM): 62%

SMILES: CC(=O)Oc1ccccc1C(=O)O [Aspirin]
occlusion time ([2]; 200 mg/kg i.v.): no effect on the occlusion time
total blood flow ([2]; 200 mg/kg i.v., versus vehicle): no significant effect on the total blood flow

SMILES: COC(=O)[C@H](c1ccccc1Cl)N1CCc2sccc2C1 [Clopidogrel]
occlusion time ([2]; 20 mg/kg oral gavage 6-7 hours prior to the experiment): totally prevents occlusion within 30 min in 6/7 experiments
total blood flow ([2]; 20 mg/kg oral gavage 6-7 hours prior, versus vehicle): significantly improved total blood flow
